In patent EP0965591A1, “(s)-3-methyl-1-(2-piperidino-phenyl)-1-butylamine, its salts, synthesis and use in the long term therapy of diabetes mellitus” (Boehringer Ingelheim Pharma KG, priority 1991, dated 1993):

What was measured:
[1] = design: species or system Menschen; conditions: in vivo
Method: Dies wirkt sich z.B. bei Applikation einer Tablette mit 2 mg AG-EE 388 ZW bzw. einer Tablette mit 1 mg AG-EE 623 ZW an 12 bzw. 6 Probanden so aus, daß die Maximal-Konzentrationen 84 ± 25 bzw. 28 ± 18 ng/ml sowie die Konzentrationen nach 4 Stunden 19 ± 8 bzw. 0,7 ± 1,0 ng/ml, nach 5 Stunden 13 ± 6 bzw. 0,3 ± 0,7 ng/ml und nach 6 Stunden 10 ± 6 bzw. 0,3 ± 0,7 ng/ml betragen.

Menschen = assay: Blood-glucose-lowering effect in human studies; format: in vivo
Description: Auf Grund dieser Ergebnisse an der Ratte erscheint für den Menschen die ausschließliche Verwendung von AG-EE 623 ZW geboten, wodurch die Dosis im Vergleich zur AG-EE 388 ZW-Dosis um 50 % reduziert werden kann. […] Darüber hinaus wurde jedoch bei den Human-Studien gefunden, daß AG-EE 623 ZW überraschende pharmakokinetische Eigenschaften aufweist, die auf Grund der AG-EE 388 ZW-Daten nicht vorhersehbar waren. AG-EE 623 ZW zeigt somit überraschende therapeutische Vorteile gegenüber dem Racemat AG-EE 388 ZW.

Ratten = assay: Acute toxicity after a single oral dose in rats; format: in vivo; conditions: single 1000 mg/kg p.o., suspension in 1% Methylcellulose; 5 male and 5 female rats; 14 days observation
weiblichen Ratten = assay: Blood-glucose-lowering effect in female rats; format: in vivo, Ratte; conditions: for blutzuckersenkende Wirkung: female rats, comparison of the two enantiomers
Description: Die beiden Enantiomeren dieser Verbindung, nämlich (S)(+)-2-Ethoxy-4-[N-[1-(2-piperidino-phenyl)-3-methyl-1-butyl]-aminocarbonylmethyl]benzoesäure (Code-Nr.: AG-EE 623 ZD) und (R) (-)-2-Ethoxy-4-[N-[1-(2-piperidino-phenyl)-3-methyl-1-butyl]aminocarbonylmethyl]benzoesäure (Code-Nr.: AG-EE 624 ZD), wurden auf ihre blutzuckersenkende Wirkung an weiblichen Ratten geprüft.

Structure (SMILES) | Elimination [1] | Plasmaspiegel in Relation zur erzielten Blutzuckersenkung [1] | Wirkungsdauer (Menschen) | verstorbene Tiere (Ratten) | blutzuckersenkende Wirkung (weiblichen Ratten) | Dauer der Wirkung (weiblichen Ratten; rat, blood-glucose-lowering effect) [Stunden] | Plasma-Konzentrationen nach Racemat-Gabe [1]
CCOc1cc(CC(=O)N[C@@H](CC(C)C)c2ccccc2N2CCCCC2)ccc1C(=O)O [AG-EE 623 ZW, (S)(+)-2-Ethoxy-4-[N-[1-(2-piperidino-phenyl)-3-methyl-1-butyl]-aminocarbonylmethyl]benzoesäure] | wesentlich schneller als das unwirksame Enantiomere, AG-EE 624 ZW, eliminiert | wesentlich niedrigere Plasmaspiegel | relativ lange Wirkungsdauer | kein Tier | das wirksame Enantiomere | > 6 | 
CCOc1cc(CC(=O)N[C@H](CC(C)C)c2ccccc2N2CCCCC2)ccc1C(=O)O [AG-EE 624 ZW, (R) (-)-2-Ethoxy-4-[N-[1-(2-piperidino-phenyl)-3-methyl-1-butyl]aminocarbonylmethyl]benzoesäure, reference compound] |  |  |  |  | das unwirksame Enantiomere |  | in unerwartet höheren Maximal- und Dauer-Spiegeln anwesend
